Source: US20260265242A1, “FABK INHIBITOR COMPOSITIONS” (The Texas A&M University System, priority 2023, published 2026)
In brackets after ≈: the same amount, converted by molar mass.

What follows are molecules tested on C. difficile strain R20291 (assay: MIC determination by broth microdilution). Conditions: not given.
Type: cell-based

In the case of `O=C(NCc1nc(-c2ccc(Br)cc2)c[nH]1)Nc1nc2ccccc2s1` [Compound 6a], the “activity against C. difficile in MIC testing (in words)” value is reported as “inactive”.

Same assay, conditions: Clostridioides difficile, R20291, 24 h, Table 1; BHI broth, 24 h anaerobic, 37° C.; read-out: R20291 MIC

`O=C(NCc1nc(-c2ccc(Br)cc2)c[nH]1)Nc1ncc(Sc2ncccc2C(F)(F)F)s1` [Compound 5g] and `O=C(NCc1nc(-c2ccc(Br)cc2)c[nH]1)Nc1ncc(Sc2ncccn2)s1` [Compound 5b] cannot be ordered by MIC: 1.56 µg/mL (≈ 2.81 µM) for the first, 1.56 to 3.12 µg/mL (≈ 3.19 to 6.39 µM) for the second.

First: O=C(NCc1nc(-c2ccc(Br)cc2)c[nH]1)Nc1ncc(Sc2ccc(Cl)cn2)s1 [Compound 5e]
Second: O=C(NCc1nc(-c2ccc(Br)cc2)c[nH]1)Nc1ncc(Sc2ccc3ccccc3n2)s1 [Compound 5h]
The MIC of the first is lower: 3.12 µg/mL (≈ 5.98 µM) for the first, > 50 µg/mL for the second.

Same assay, conditions: Clostridioides difficile, R20291, 24 h, Table 2; BHI broth, 24 h anaerobic, 37° C.; read-out: R20291 MIC

In order of falling MIC:
1. O=C(NCc1nc(-c2ccc(Br)cc2)c[nH]1)Nc1nc2ccc(Br)cc2s1 [Compound 6g]  50 µg/mL (≈ 98.6 µM)
2. CCOc1ccc2nc(NC(=O)NCc3nc(-c4ccc(Br)cc4)c[nH]3)sc2c1 [Compound 6k]  12.5 µg/mL (≈ 26.5 µM)
3. O=C(NCc1nc(-c2ccc(Br)cc2)c[nH]1)Nc1nc2cc(C(F)(F)F)ccc2s1 [Compound 6c]  3.12 µg/mL (≈ 6.29 µM)

Same assay, conditions: Clostridioides difficile, R20291, 24 h, read-out: R20291 MIC

`O=C(NCc1nc(-c2ccc(Br)cc2)c[nH]1)Nc1nc2ccccc2s1` [Compound 6a] and `O=C(NCc1nc(-c2ccc(Br)cc2)c[nH]1)Nc1ncc(Sc2nc3ccccc3s2)s1` [Compound 5i] cannot be ordered by MIC: > 50 µg/mL for the first, > 50 µg/mL for the second.

Compared with `O=C(NCc1nc(-c2ccc(Br)cc2)c[nH]1)Nc1ncc(Sc2ccc(Br)cc2)s1` [Compound 5d], `O=C(NCc1nc(-c2ccc(Br)cc2)c[nH]1)Nc1ncc(Sc2ccccc2)s1` [Compound 5c] is lower in MIC: 25 µg/mL (≈ 44.2 µM) for the first, 1.56 to 3.12 µg/mL (≈ 3.21 to 6.41 µM) for the second.

With `CN[C@H](CC(C)C)C(=O)N[C@H]1C(=O)N[C@@H](CC(N)=O)C(=O)N[C@H]2C(=O)N[C@H]3C(=O)N[C@H](C(=O)N[C@H](C(=O)O)c4cc(O)cc(O)c4-c4cc3ccc4O)[C@H](O)c3ccc(c(Cl)c3)Oc3cc2cc(c3O[C@@H]2O[C@H](CO)[C@@H](O)[C@H](O)[C@H]2O[C@H]2C[C@](C)(N)[C@H](O)[C@H](C)O2)Oc2ccc(cc2Cl)[C@H]1O` [Vancomycin, reference compound] the MIC was 0.39 to 0.78 µg/mL (≈ 0.269 to 0.538 µM).

Same assay, conditions: Clostridioides difficile, R20291, Table 3; read-out: R20291 MIC

`O=C(NCc1nc(-c2ccccc2)n[nH]1)Nc1ncc(Sc2ccccn2)s1` [Compound 8a] and `O=C(NCc1nc2ccccc2c(=O)[nH]1)Nc1ncc(Sc2ccccn2)s1` [Compound 8c] cannot be ordered by MIC: > 50 µg/mL for the first, > 50 µg/mL for the second.

Same assay, conditions: Clostridioides difficile, R20291, running text; read-out: MIC (anti-C. difficile activity)

First: O=C(NCc1nc(-c2ccc(Br)cc2)c[nH]1)Nc1nc2ccc(Cl)cc2s1 [Compound 6h]
Second: CS(=O)(=O)c1ccc2nc(NC(=O)NCc3nc(-c4ccc(Br)cc4)c[nH]3)sc2c1 [Compound 6f]
The MIC of the first is lower: 6.25 µg/mL (≈ 13.5 µM) for the first, > 100 µg/mL for the second.

`O=C(NCc1nc(-c2ccc(Br)cc2)c[nH]1)Nc1nc2c(F)cc(F)cc2s1` [Compound 6j] and `O=C(NCc1nc(-c2ccc(Br)cc2)c[nH]1)Nc1nc2ccc(OC(F)(F)F)cc2s1` [Compound 6l] cannot be ordered by MIC: 12.5 µg/mL (≈ 26.9 µM) for the first, 12.5 to 25 µg/mL (≈ 24.4 to 48.8 µM) for the second.

`S=C(NCc1nc(-c2ccc(Br)cc2)c[nH]1)Nc1ncc(Sc2ccccn2)s1` [Compound 7a] showed an MIC of 0.39 µg/mL (≈ 0.775 µM).

Same assay, conditions: Table 2; BHI broth, 24 h anaerobic, 37° C.

First: CN[C@H](CC(C)C)C(=O)N[C@H]1C(=O)N[C@@H](CC(N)=O)C(=O)N[C@H]2C(=O)N[C@H]3C(=O)N[C@H](C(=O)N[C@H](C(=O)O)c4cc(O)cc(O)c4-c4cc3ccc4O)[C@H](O)c3ccc(c(Cl)c3)Oc3cc2cc(c3O[C@@H]2O[C@H](CO)[C@@H](O)[C@H](O)[C@H]2O[C@H]2C[C@](C)(N)[C@H](O)[C@H](C)O2)Oc2ccc(cc2Cl)[C@H]1O [Vancomycin, reference compound]
Second: O=C(NCc1nc(-c2ccc(Br)cc2)c[nH]1)Nc1nc2c(C(F)(F)F)cccc2s1 [Compound 6b]
The “R20291 MIC” value of the first is lower: 0.39 to 0.78 µg/mL for the first, 1.56 µg/mL for the second.

For `O=C(NCc1nc(-c2ccc(Br)cc2)c[nH]1)Nc1nc2c(C(F)(F)F)cccc2s1` [Compound 6e], the “R20291 MIC” value was 12.5 µg/mL.

Same assay, conditions: unit printed as g/mL

In order of rising MIC (anti-C. difficile activity):
1. O=C(NCc1nc(-c2ccc(Br)cc2)c[nH]1)Nc1ncc(Sc2ccc(C(F)(F)F)cn2)s1 [Compound 5f]  3.12 µg/mL (≈ 5.62 µM)
2. O=C(NCc1nc(-c2ccc(Br)cc2)c[nH]1)Nc1ncc(Sc2ccc(Cl)cn2)s1 [Compound 5e]  3.12 µg/mL (≈ 5.98 µM)
